# Reference: patent US11673867B2, “Sulfonamide derivative or pharmaceutically acceptable acid-addition salt” (University of Tsukuba, priority 2017, dated 2023)
# Biological target: T1, human OX2R (Homo sapiens, UniProt O43614)
# T1 construct: expressed in transfected cells; host or cells: CHO (Chinese hamster ovary) cells, line CHOOX2R, also expressing NFAT-luciferase
# T1 sequence (O43614 1-444): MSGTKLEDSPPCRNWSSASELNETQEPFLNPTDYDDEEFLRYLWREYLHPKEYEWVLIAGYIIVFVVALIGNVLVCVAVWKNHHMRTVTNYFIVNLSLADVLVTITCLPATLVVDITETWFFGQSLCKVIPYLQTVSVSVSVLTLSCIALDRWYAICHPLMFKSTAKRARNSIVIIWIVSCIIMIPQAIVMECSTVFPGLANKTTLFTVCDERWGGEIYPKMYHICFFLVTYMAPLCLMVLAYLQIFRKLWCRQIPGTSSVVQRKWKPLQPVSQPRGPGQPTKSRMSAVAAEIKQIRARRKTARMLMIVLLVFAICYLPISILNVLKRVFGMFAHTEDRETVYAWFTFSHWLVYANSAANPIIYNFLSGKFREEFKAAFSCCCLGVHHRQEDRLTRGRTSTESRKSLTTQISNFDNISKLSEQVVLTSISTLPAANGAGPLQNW
# Test: Evaluation of agonist activity against OX2R (intracellular calcium, Fura-2AM, FDSS7000, CHOOX2R cells)
# Assay type: cell-based
# Conditions: CHO cells expressing human OX2R; calcium fluorescence ratio 340/380 nm; 10^-11.5 M to 10^-5 M
# Experimental: Evaluation of Agonist Activity Against OX2R
# NAFT-luciferase gene and human OX2R gene were constitutively expressed in CHO cell, which is a cell line derived from Chinese hamster ovary to establish a cell line (CHOOX2R). The cells were seeded in a 96-well Multiplate at 10,000 cells/well and cultured in a 5% FBS (Thermo Scientific)-added DMEM medium (Sigma-Aldrich) for 48 hr. The medium was removed, an assay buffer (20 mM HEPES (Sigma-Aldrich), Hanks' balanced salt solution (Gibco), 0.1% BSA (Sigma-Aldrich), 2.5 mM probenecid acid (Wako Pure Chemical Industries, Ltd.)) (100 μL) containing 4 μM Fura-2AM (Cayman Chemical) was added, and the cells were incubated for 60 min. The buffer containing Fura-2AM was removed, and an assay buffer (75 μL) was added. An assay buffer (25 μL) containing a test compound was added thereto to start the reaction. Changes in the intracellular calcium ion concentration due to the reaction were measured by measuring the fluorescence intensity ratio by dual wavelength excitation at 340 and 380 nm, by using FDSS7000 (Hamamatsu Photonics K.K.). The test compound was dissolved in DMSO to 10 mM, and diluted with the assay buffer to a final concentration of 10^−11.5 M to 10^−5 M (final concentration of DMSO 1%).
row,Compound,EC50
1,"CCCc1ccc(N2CCCN(c3cccc(NS(=O)(=O)c4cc(C(C)C)ccc4OC)c3)C2=O)cc1 [Example 19, 5-isopropyl-2-methoxy-N-(3-(2-oxo-3-(4-propylphenyl)tetrahydropyrimidin-1(2H)-yl)phenyl)benzenesulfonamide]",19.6 nM
2,COc1ccc(C(C)C)cc1S(=O)(=O)Nc1cccc(N2CCCN(c3ccc(C(C)C)cc3)C2=O)c1 [Example 20],41.4 nM
3,"CCCc1ccc(N2CCCN(c3cccc(NS(=O)(=O)c4cc(C5CNC(=O)C5)ccc4OC)c3)C2=O)cc1 (stereo not shown) [Example 18, 2-methoxy-N-(3-(2-oxo-3-(4-propylphenyl)tetrahydropyrimidin-1(2H)-yl)phenyl)-5-(5-oxopyrrolidin-3-yl)benzenesulfonamide]",6.31 nM
4,CCOc1ccc(N2CCCN(c3cccc(NS(=O)(=O)c4cc(C(C)C)ccc4OC)c3)C2=O)cc1 [Example 22],38.1 nM
5,CCCCCCCCOc1ccc(N2CCCN(c3cccc(NS(=O)(=O)c4cc(-c5cccc(C(=O)N(C)C)c5)ccc4OC)c3)C2=O)cc1 [Example 11],> 500 nM
6,"CCCc1ccc(N2CCCN(c3cccc(NS(=O)(=O)c4cc(-c5cccc(C(=O)N(C)C)c5)ccc4OC(F)(F)F)c3)C2=O)cc1 [Example 17, N,N-dimethyl-3′-(N-(3-(2-oxo-3-(4-propylphenyl)tetrahydropyrimidin-1(2H)-yl)phenyl)sulfamoyl)-4′-(trifluoromethoxy)-[1,1′-biphenyl]-3-carboxamide]",395 nM
7,"COc1ccc(-c2cccc(C(=O)N(C)C)c2)cc1S(=O)(=O)Nc1cccc(N2CCCN(c3ccc(Oc4ccccc4)cc3)C2=O)c1 [Example 12, 4′-methoxy-N,N-dimethyl-3′-(N-(3-(2-oxo-3-(4-phenoxyphenyl)tetrahydropyrimidin-1(2H)-yl)phenyl)sulfamoyl)-[1,1′-biphenyl]-3-carboxamide]",217 nM
8,COc1ccc(-c2cccc(C(=O)N(C)C)c2)cc1S(=O)(=O)Nc1cccc(N2CCCN(c3ccc(OCC(F)(F)F)cc3)C2=O)c1 [Example 9],20 nM
9,COc1ccc(-c2cccc(C(=O)N(C)C)c2)cc1S(=O)(=O)Nc1cccc(N2CCCN(c3ccc(-c4ccccc4)cc3)C2=O)c1 [Example 14],140 nM
10,COc1ccc(N2CCCN(c3cccc(NS(=O)(=O)c4cc(C(C)C)ccc4OC)c3)C2=O)cc1 [Example 21],81.7 nM

# More lines, now with the values ahead:
row,EC50,Compound
1,65.9 nM,COc1ccc(-c2cccc(C(=O)N(C)C)c2)cc1S(=O)(=O)Nc1cccc(N2CCCN(c3ccc(OCC(C)C)cc3)C2=O)c1 [Example 10]
2,3.1 nM,CCc1ccc(N2CCCN(c3cccc(NS(=O)(=O)c4cc(-c5cccc(C(=O)N(C)C)c5)ccc4OC)c3)C2=O)cc1 [Example 3]
3,0.843 nM,"[2H]C([2H])([2H])Oc1ccc(-c2cccc(C(=O)N(C)C)c2)cc1S(=O)(=O)Nc1cccc(N2CCCN(c3ccc(CCC)cc3)C2=O)c1 [Example 16, 4′-(methoxy-d3)-N,N-dimethyl-3′-(N-(3-(2-oxo-3-(4-propylphenyl)tetrahydropyrimidin-1(2H)-yl)phenyl)sulfamoyl)-[1,1′-biphenyl]-3-carboxamide]"
4,7.52 nM,"CCCCc1ccc(N2CCCN(c3cccc(NS(=O)(=O)c4cc(-c5cccc(C(=O)N(C)C)c5)ccc4OC)c3)C2=O)cc1 [Example 13, 3′-(N-(3-(3-(4-butylphenyl)-2-oxotetrahydropyrimidin-1(2H)-yl)phenyl)sulfamoyl)-4′-methoxy-N,N-dimethyl-[1,1′-biphenyl]-3-carboxamide]"
5,0.61 nM,"CCCc1ccc(N2CCCN(c3cccc(NS(=O)(=O)c4cc(-c5cccc(C(=O)N(C)C)c5)ccc4OC)c3)C2=O)cc1 [Example 1, 4′-methoxy-N,N-dimethyl-3′-(N-(3-(2-oxo-3-(4-propylphenyl)tetrahydropyrimidin-1(2H)-yl)phenyl)sulfamoyl)-[1,1′-biphenyl]-3-carboxamide]"
6,5.12 nM,COc1ccc(-c2cccc(C(=O)N(C)C)c2)cc1S(=O)(=O)Nc1cccc(N2CCCN(c3ccc(C)cc3)C2=O)c1 [Example 2]
7,2.87 nM,"CCOc1ccc(N2CCCN(c3cccc(NS(=O)(=O)c4cc(-c5cccc(C(=O)N(C)C)c5)ccc4OC)c3)C2=O)cc1 [Example 6, 3′-(N-(3-(3-(4-ethoxyphenyl)-2-oxotetrahydropyrimidin-1(2H)-yl)phenyl)sulfamoyl)-4′-methoxy-N,N-dimethyl-[1,1′-biphenyl]-3-carboxamide]"
8,2.41 nM,COc1ccc(N2CCCN(c3cccc(NS(=O)(=O)c4cc(-c5cccc(C(=O)N(C)C)c5)ccc4OC)c3)C2=O)cc1 [Example 5]
9,> 500 nM,CCCCCCCCc1ccc(N2CCCN(c3cccc(NS(=O)(=O)c4cc(-c5cccc(C(=O)N(C)C)c5)ccc4OC)c3)C2=O)cc1 [Example 15]
10,3.3 nM,COc1ccc(-c2cccc(C(=O)N(C)C)c2)cc1S(=O)(=O)Nc1cccc(N2CCCN(c3ccc(C(C)C)cc3)C2=O)c1 [Example 4]

# System: C57BL/6J lineage wild-type (WT) mice
# Test: Awakening effect of oral administration (light period) to wild-type mice (EEG/EMG)
# Assay type: in vivo, mouse
# Conditions: ZT6 light period, 0.625 mg/kg-25 mg/kg, versus control MC, 60, 120, 180 min after administration, n=3
# Description: Awakening Effect of Oral Administration (Light Period) of Test Compound to Wild-Type Mice
# As the test compound, the compound of Example 1 was used.
# C57BL/6J lineage wild-type (WT) mice, and orexin receptor-deficient mice (DKO mice) (both males) as a negative control were used as experimental animals. The mice (9 to 35 weeks of age) underwent surgery for embedding electroencephalogram electrodes into the skull (Bregma: X=1.5; Y=0.6, Lambda: X=1.5; Y=0) and inserting electromyogram electrodes into the trapezius muscle under isoflurane anesthesia. Two weeks postoperation were the recovery period and acclimation period to the electroencephalogram/electromyogram measurement cage, after which administration and measurement were performed. To prepare a suspension for oral administration of the test compound, the compound was grinded in an agate mortar for 20 min and sufficiently stirred while adding a small amount of 0.5% methylcellulose aqueous solution (MC). The suspension (100 μL) was dispensed into an oral gavage needle. […]
# To the WT mice were orally administered 100 μL each of the control MC or the test compound during the light period (ZT6) in the sleep period. […] DKO mice were also evaluated by a similar method, in which MC or a test compound (5 mg/kg) was orally administered, and electroencephalogram and electromyogram were measured for 3 hr after the administration. […]
row,Compound,awakening time (awakening prolonging effect)
1,"CCCc1ccc(N2CCCN(c3cccc(NS(=O)(=O)c4cc(-c5cccc(C(=O)N(C)C)c5)ccc4OC)c3)C2=O)cc1 [Example 1, 4′-methoxy-N,N-dimethyl-3′-(N-(3-(2-oxo-3-(4-propylphenyl)tetrahydropyrimidin-1(2H)-yl)phenyl)sulfamoyl)-[1,1′-biphenyl]-3-carboxamide]",significantly prolonged the awakening time and increased the awakening time in a dose-dependent manner

# System: orexin receptor-deficient mice (DKO mice)
# Test: Awakening effect of oral administration to orexin receptor-deficient mice (DKO mice), negative control (EEG/EMG)
# Assay type: in vivo, mouse
# Conditions: oral 5 mg/kg, versus control MC, measured 3 hr after administration, n=3
# Description: C57BL/6J lineage wild-type (WT) mice, and orexin receptor-deficient mice (DKO mice) (both males) as a negative control were used as experimental animals. The mice (9 to 35 weeks of age) underwent surgery for embedding electroencephalogram electrodes into the skull (Bregma: X=1.5; Y=0.6, Lambda: X=1.5; Y=0) and inserting electromyogram electrodes into the trapezius muscle under isoflurane anesthesia. Two weeks postoperation were the recovery period and acclimation period to the electroencephalogram/electromyogram measurement cage, after which administration and measurement were performed. To prepare a suspension for oral administration of the test compound, the compound was grinded in an agate mortar for 20 min and sufficiently stirred while adding a small amount of 0.5% methylcellulose aqueous solution (MC). The suspension (100 μL) was dispensed into an oral gavage needle. The suspensions were prepared 30 min before administration.
# To the WT mice were orally administered 100 μL each of the control MC or the test compound during the light period (ZT6) in the sleep period. The test compound was administered at concentrations of 0.625 mg/kg-25 mg/kg according to the stage. DKO mice were also evaluated by a similar method, in which MC or a test compound (5 mg/kg) was orally administered, and electroencephalogram and electromyogram were measured for 3 hr after the administration. […]
row,Compound,awakening time (awakening prolonging effect)
1,"CCCc1ccc(N2CCCN(c3cccc(NS(=O)(=O)c4cc(-c5cccc(C(=O)N(C)C)c5)ccc4OC)c3)C2=O)cc1 [Example 1, 4′-methoxy-N,N-dimethyl-3′-(N-(3-(2-oxo-3-(4-propylphenyl)tetrahydropyrimidin-1(2H)-yl)phenyl)sulfamoyl)-[1,1′-biphenyl]-3-carboxamide]",no significant difference in the awakening time
